Measurements: publication PMC9827972, “Identification of 2,4‐Dinitro‐Biphenyl‐Based Compounds as MAPEG Inhibitors” (Chemmedchem, 2022)
Read-outs that look alike come from different tables or passages of the source.

Columns and labels:
[1] = target: T1, human recombinant LTC4S (Homo sapiens, UniProt Q16873); assay: Determination of LTC4 synthase activity in microsomes of HEK293 cells expressing LTC4S; type: biochemical; conditions: for inhibition of LTC4S activity (in words): microsomal preparations of HEK293 cells expressing human recombinant LTC4S
T1 construct: expressed in transfected cells; host or cells: HEK293 cells stably expressing LTC4S; microsomal fraction
T1 sequence (Q16873 1-150): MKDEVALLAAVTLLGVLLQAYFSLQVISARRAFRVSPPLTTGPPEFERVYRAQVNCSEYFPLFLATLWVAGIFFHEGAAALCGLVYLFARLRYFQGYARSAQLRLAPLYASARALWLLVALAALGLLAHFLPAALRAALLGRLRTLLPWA
Experimental: Determination of LTC4 synthase activity. HEK293 cells stably expressing human recombinant LTC4S (HEK_LTC4S) were used to generate microsomes containing LTC4S. Briefly, HEK_LTC4S cells were frozen in liquid nitrogen and sonicated 3×20 s at 4 °C in homogenization buffer (0.1 M potassium phosphate buffer, pH 7.4, 1 mM phenylmethanesulfonylfluoride, 60 μg/mL soybean trypsin inhibitor, 1 μg/mL leupeptin, 2.5 mM glutathione, and 250 mM sucrose). Lysates were sequentially centrifuged at 10,000×g, 10 min at 4 °C and 174,000×g for 1 h at 4 °C. The microsomal fraction (2.5 μg) was resuspended in assay buffer (0.1 M potassium buffer pH 7.4, plus 5 mM glutathione) and preincubated with the test compound or vehicle (0.1 % DMSO) for 10 min at 4 °C. The reactions were started by adding 1 μM LTA4‐methyl ester (Cayman, Ann Arbor, MI) and stopped after 10 min incubation at 4 °C by 1 vol. ice‐cold methanol. Acidified PBS and LTC4‐methyl ester‐d5 as internal standard were added prior solid phase extraction, and LTC4‐methyl ester formation was analyzed by UPLC‐MS/MS as described.[43] UPLC‐MS/MS was carried out by Acquity UPLC BEH C18 column (1.7 μm, 2.1×50 mm, waters) and QTRAP 5500 Mass spectrometer (AB Sciex). LTC4‐methyl ester and LTC4‐d5 methyl ester (standard) were detected by multiple reaction monitoring in the negative ion mode by a method described previously.[44]
Reversed phase liquid chromatography and mass spectrometry. LTC4S metabolites were separated on an Acquity ultra performance liquid chromatography (UPLC) BEH C18 column (1.7 μm, 2.1×50 mm, Waters, Milford, MA) using an Acquity^TM UPLC system (Waters, Milford, MA, USA) as previously described.[42] The chromatography system was coupled to a QTRAP 5500 Mass Spectrometer (AB Sciex, Darmstadt, Germany) equipped with an electrospray ionization source. LTC4S metabolites were quantified by multiple reaction monitoring in the negative using a previously reported method with a lower limit of detection of 150 to 600 pg mL^−1 and linear quantification range up to 200 ng mL^−1.[22] Automatic peak integration was performed with ANALYST 1.6 software (Sciex, Darmstadt, Germany) using IntelliQuan default settings. Data were normalized on the internal standard PGB1 and are given as relative intensities.

[2] = tested on: 5‐LOX product formation in human neutrophils; assay: 5-LOX product formation in intact human neutrophils stimulated with A23187 (FLAP-dependent); conditions: Neutrophil, read-out: IC50 cell‐based 5‐LOX
Experimental: Blood cell isolation and cultivation of cell lines. Human neutrophils were freshly isolated from peripheral blood obtained at the Institute for Transfusion Medicine of the University Hospital Jena (Germany) as described.[45] Briefly, human peripheral blood was collected in heparinized tubes (16 I. E. heparin/mL blood) by venipuncture from fasted (12 h) adult healthy volunteers, with consent, and leukocyte concentrates were prepared by centrifugation (4000×g, 20 min, 20 °C). The subjects had no apparent inflammatory conditions and had not taken anti‐inflammatory drugs for at least ten days prior to blood collection. Neutrophils were immediately isolated by dextran sedimentation and centrifugation on Nycoprep cushions (PAA Laboratories, Linz, Austria) and hypotonic lysis of erythrocytes was performed under hypotonic conditions. Neutrophils were finally resuspended in PBS pH 7.4 containing 1 mg/mL glucose and 1 mM CaCl2 (purity >96‐97 %).
5‐LOX activity assay. […] […] 30 μL 1 N HCl and 500 μL PBS, and 200 ng PGB1 were added and the samples were subjected to solid phase extraction on C18‐columns (100 mg, UCT, Bristol, PA, USA). 5‐LOX products (LTB4, all‐trans isomers of LTB4, and 5‐hydro(pero)xy‐6,8,11,14‐ eicosatetraenoic acid (5‐H(p)ETE) were analyzed by RP‐HPLC and quantities calculated referencing to the internal standard PGB1.

[3] = target: T2, mPGES‐1 (Homo sapiens, UniProt O14684); conditions: cell-free; cited from earlier work
T2 construct: Microsomes derived from A549 cells expressing mPGES‐1; endogenous in cells; host or cells: A549 cells (microsomes)
T2 sequence (O14684 1-152): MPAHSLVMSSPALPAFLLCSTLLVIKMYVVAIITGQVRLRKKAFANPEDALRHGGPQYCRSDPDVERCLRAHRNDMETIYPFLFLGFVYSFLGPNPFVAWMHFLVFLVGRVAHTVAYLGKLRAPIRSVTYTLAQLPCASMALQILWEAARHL

[4] = target: T3, human recombinant 5‐LOX (Homo sapiens, UniProt P09917); assay: Human recombinant 5-LOX activity assay (cell-free); type: biochemical; conditions: 20 μM arachidonic acid
T3 construct: made in house; host or cells: Escherichia coli BL21 (DE3)
T3 sequence (P09917 1-674): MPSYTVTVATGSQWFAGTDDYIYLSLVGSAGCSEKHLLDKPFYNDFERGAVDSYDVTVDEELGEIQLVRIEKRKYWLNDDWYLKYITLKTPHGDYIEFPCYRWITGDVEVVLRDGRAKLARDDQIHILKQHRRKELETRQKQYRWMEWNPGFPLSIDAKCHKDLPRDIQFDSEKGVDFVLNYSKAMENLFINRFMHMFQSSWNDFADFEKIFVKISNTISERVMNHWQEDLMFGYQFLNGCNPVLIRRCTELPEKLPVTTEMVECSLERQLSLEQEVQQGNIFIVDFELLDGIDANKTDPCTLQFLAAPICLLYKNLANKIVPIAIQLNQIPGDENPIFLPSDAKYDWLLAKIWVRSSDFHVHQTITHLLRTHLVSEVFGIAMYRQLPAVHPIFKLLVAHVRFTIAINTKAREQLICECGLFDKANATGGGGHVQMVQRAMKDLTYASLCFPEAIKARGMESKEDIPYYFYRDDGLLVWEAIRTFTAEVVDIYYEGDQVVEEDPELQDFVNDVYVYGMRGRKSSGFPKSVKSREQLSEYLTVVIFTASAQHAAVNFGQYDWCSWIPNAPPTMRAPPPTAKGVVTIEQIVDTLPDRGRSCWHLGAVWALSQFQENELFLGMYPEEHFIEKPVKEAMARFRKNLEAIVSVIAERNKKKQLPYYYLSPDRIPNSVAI
Experimental: Human recombinant 5‐LOX activity assay. Human recombinant 5‐LOX was expressed in Escherichia coli (E. coli BL21 (DE3)) cells and partially purified by affinity chromatography using an ATP‐agarose column as described.[22] Semi‐purified 5‐LOX (specific activity: 1.6 ± 0.2 μg 5‐LOX products per μg protein) was diluted in PBS containing EDTA (1 mM) and ATP (1 mM) to a concentration of 0.5 μg mL^−1 and immediately pre‐incubated with the test compounds (1 μL in DMSO; final DMSO concentration: 0.1 %) for 10 min at 4 °C. Samples were pre‐warmed for 30 s at 37 °C, and 5‐LOX product formation was initiated adding 2 mM CaCl2 and 20 μM arachidonic acid. The reaction was stopped after 10 min at 37 °C adding 1 mL ice‐cold methanol. Formed 5‐LOX metabolites (all‐trans isomers of LTB4 and 5‐H(p)ETE) were extracted and an aliquot of 50 μL analyzed by reversed phase‐HPLC (RP‐HPLC) as described.[23] Data were normalized to the vehicle control to avoid variations independent of test compounds.

[5] = target: T4, 5‐LOX/FLAP interaction (Homo sapiens, UniProt P20292); assay: In situ proximity ligation assay of 5-LOX/FLAP interaction in HEK293 cells; type: cell-based; conditions: HEK293 cells expressing 5-LOX and FLAP, 2.5 μM A23187; 1 d 3 μM
T4 construct: expressed in transfected cells; host or cells: HEK293 cells stably transfected with 5-LOX and FLAP
T4 sequence (P20292 1-161): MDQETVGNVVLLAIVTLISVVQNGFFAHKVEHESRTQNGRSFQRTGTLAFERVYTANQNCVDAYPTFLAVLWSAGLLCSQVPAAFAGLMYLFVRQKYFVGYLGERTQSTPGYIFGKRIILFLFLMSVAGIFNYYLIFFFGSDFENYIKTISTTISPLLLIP
Experimental: Cell culture. The human embryonic kidney cell line HEK293 was cultured as monolayer at 37 °C and 5 % CO2 in DMEM High glucose containing 10 % heat‐inactivated fetal calf serum (FCS), 100 U/mL penicillin and 100 μg/mL streptomycin. HEK293 cells stably expressing human recombinant 5‐LOX and FLAP were selected by 400 μg/mL geneticin and 200 μg/mL hygromycin B, respectively, as described before.[21]
Analysis of 5‐LOX/FLAP interaction by in situ proximity ligation assay. The manufacturer's protocol[46] for proximity ligation assay was used to detect in situ interaction of 5‐LOX with FLAP in HEK293 cells stably expressing both proteins as reported elsewhere.[24] Cells were pretreated with test compounds for 10 min at 37 °C, then treated with 2.5 μM Ca^2+‐ionophore A23187 for another 10 min, fixed, and incubated with primary antibody overnight as described before.[24] Samples were then incubated for 1 h (37 °C) with species‐specific secondary antibodies conjugated with oligonucleotides (PLA probe anti‐mouse MINUS and anti‐rabbit PLUS). The antibody‐bound oligonucleotides formed a DNA circle by addition of ligase (30 min, 37 °C). […] Protein‐protein‐interactions occurred as magenta fluorescent spots analyzed with an Axiovert 200 M microscope (Carl Zeiss) and a Plan Neofluar×40/1.3 Oil (DIC III) objective (Carl Zeiss).

[6] = target: T2, mPGES‐1; assay: mPGES-1 washout assay in microsomes of A549 cells; type: biochemical; conditions: for residual mPGES-1 enzyme activity: % of vehicle control
Experimental: mPGES‐1 washout assay. Microsomes derived from A549 cells expressing mPGES‐1 were incubated with low (1 μM) or high concentrations (10 μM) of compound 1 d. After 15 min an aliquot of the sample containing 10 μM 1 d was diluted 10‐fold with buffer to reach a final concentration of 1 μM. After another 5 min the substrate PGH2 (20 μM) was added. The reaction was stopped after 60 s to determine PGE2 formation. Washout data are presented as means of residual activity ± SD in % of vehicle treated control for n=3 independent experiments. Outliers were determined using Grubb's test (GraphPad Software, La Jolla, CA). Samples were not blinded.

[7] = target: T4, 5‐LOX/FLAP interaction; design: method as in PMID 24905297, PMID 28839250; conditions: HEK cells, same experimental conditions; cited from earlier work

O=[N+]([O-])c1cc([N+](=O)[O-])c(-c2ccc(COc3cccc(C(F)(F)F)c3)cc2)cc1F [1 a]
IC50 [1]: 1.68 ± 0.21 µM
inhibition of LTC4S activity (in words) [1]: significantly inhibited LTC4S activity
IC50 ([2]; Homo sapiens, 5 h): 3.93 ± 0.24 µM

O=[N+]([O-])c1cc([N+](=O)[O-])c(-c2ccc(OCc3ccccc3)cc2)cc1F [1 b]
IC50 [1]: > 100 µM
inhibition of LTC4S activity (in words) [1]: did not show inhibitory activity
IC50 ([2]; Homo sapiens, 5 h): > 100 µM
IC50 [3]: 0.6 ± 1.2 µM

O=[N+]([O-])c1cc([N+](=O)[O-])c(-c2ccc(COc3cccc4ccccc34)cc2)cc1F [1 c]
IC50 [1]: > 100 µM
inhibition of LTC4S activity (in words) [1]: did not show inhibitory activity
IC50 ([2]; Homo sapiens, 5 h): 4.18 ± 0.16 µM

O=[N+]([O-])c1cc([N+](=O)[O-])c(-c2ccccc2COc2cccc(C(F)(F)F)c2)cc1F [1 d]
inhibition of LTC4S activity (in words) [1]: significantly inhibited LTC4S activity
IC50 ([1]; microsomes of HEK293 cells expressing human recombinant LTC4S, 1 μM LTA4-methyl ester, read-out: IC50 cell‐free LTC4S): 0.93 ± 0.04 µM
IC50 [4]: 3.35 ± 0.22 µM
IC50 ([2]; human neutrophils, 2.5 μM A23187, LTB4, its trans isomers and 5-H(p)ETE): 1.4 ± 0.09 µM
effect on 5‐LOX/FLAP interaction (PLA) [5]: able to block the 5‐LOX/FLAP interaction
residual mPGES-1 enzyme activity ([6]; 1 μM 1 d): 83.3%
residual mPGES-1 enzyme activity ([6]; 10 μM 1 d): 21.3%
mPGES-1 enzymatic activity after washout ([6]; 10-fold dilution from 10 to 1 μM): 72.5%
mechanism of mPGES-1 inhibition ([6]; washout experiment): reversible mechanism of inhibition

COCCc1ccc(OCc2ccc(-c3cc(F)c([N+](=O)[O-])cc3[N+](=O)[O-])cc2)cc1 [1 e]
IC50 [1]: > 100 µM
inhibition of LTC4S activity (in words) [1]: did not show inhibitory activity
IC50 ([2]; Homo sapiens, 5 h): 3.31 ± 0.27 µM

CC(C)c1ccc2c(c1)c(SC(C)(C)C)c(CC(C)(C)C(=O)O)n2Cc1ccc(Cl)cc1 [MK886]
effect on 5‐LOX/FLAP interaction (PLA), earlier reports [7]: does block the interaction

CC(c1cc2ccccc2s1)N(O)C(N)=O (stereo not drawn) [zileuton]
effect on 5‐LOX/FLAP interaction (PLA), earlier reports [7]: inefficiency
